Test results reported in US7968579B2, “Antifungal triazole derivatives” (Daewoong Pharmaceutical Co., Ltd., priority 2005, dated 2011).
Values after ≈ are worked out from the molar mass of the structure shown.

What was measured:
Aspergillus flavus = assay: In vitro assay for antifungal activity; type: cell-based; conditions: RPMI 1640, 1% DMSO, concentration at which 50% of the fungi were inhibited vs negative control, alamarblue; for MIC: Aspergillus flavus
Method: (§1) Fungal strains to be tested were inoculated onto Sabouraud dextrose agar, YM agar, and Potato dextrose agar and sufficiently cultured at 35° C. for two to three days. Individual single colonies of the yeast fungi selected out of the cultured strains were sufficiently suspended in 5 ml of 0.85% sterile physiological saline, followed by correction to adjust the absorbance thereof at 530 nm to 0.108. The suspensions were diluted serially by 1:50 and then 1:20 in RPMI 1640 media to prepare liquid inocula ranging in cell count from 1.0×10^3 to 5.0×10^3 CFU/ml.
(§2) Antifungal samples were prepared by diluting the compounds of the present inventions in RPMI 1640 media to serial concentrations ranging from 0.0625 to 32 μg/ml. As a vehicle, DMSO was contained in a final concentration of 1% (V/V) in the antifungal samples. 0.1 ml of each of the dilutions in series was added to equal volume of each of the fungal inocula.
(§3) Concentrations of the compounds at which 50% of the fungi were inhibited compared to the negative control were determined using the growth indicator alamarblue.

Cryptococcus neoformans = assay: In vitro assay for antifungal activity; type: cell-based; conditions: RPMI 1640, 1% DMSO, concentration at which 50% of the fungi were inhibited vs negative control, alamarblue; for MIC: Cryptococcus neoformans
Method: as §1, §2, §3

Aspergillus terreus = assay: In vitro assay for antifungal activity; type: cell-based; conditions: RPMI 1640, 1% DMSO, concentration at which 50% of the fungi were inhibited vs negative control, alamarblue; for MIC: Aspergillus terreus
Method: as §1, §2, §3

Candida glabrata = assay: In vitro assay for antifungal activity; type: cell-based; conditions: RPMI 1640, 1% DMSO, concentration at which 50% of the fungi were inhibited vs negative control, alamarblue, 24 hours; for MIC: Nakaseomyces glabratus
Method: as §1, §2, §3

Candida parapsilosis = assay: In vitro assay for antifungal activity; type: cell-based; conditions: RPMI 1640, 1% DMSO, concentration at which 50% of the fungi were inhibited vs negative control, alamarblue, 24 hours; for MIC: Lodderomyces parapsilosis
Method: as §1, §2, §3

Candida tropicalis = assay: In vitro assay for antifungal activity; type: cell-based; conditions: RPMI 1640, 1% DMSO, concentration at which 50% of the fungi were inhibited vs negative control, alamarblue, 24 hours; for MIC: Candida tropicalis
Method: as §1, §2, §3

Aspergillus fumigatus = assay: In vitro assay for antifungal activity; type: cell-based; conditions: RPMI 1640, 1% DMSO, concentration at which 50% of the fungi were inhibited vs negative control, alamarblue; for MIC: Aspergillus fumigatus
Method: as §1, §2, §3

Candida albicans [1] = assay: In vitro assay for antifungal activity; type: cell-based; conditions: RPMI 1640, 1% DMSO, concentration at which 50% of the fungi were inhibited vs negative control, alamarblue, 24 hours; for MIC: Candida albicans
Method: as §1, §2, §3

Candida krusei = assay: In vitro assay for antifungal activity; type: cell-based; conditions: RPMI 1640, 1% DMSO, concentration at which 50% of the fungi were inhibited vs negative control, alamarblue, 24 hours; for MIC: Pichia kudriavzevii
Method: as §1, §2, §3

[2] = Assay for acute toxicity in mice; type: in vivo; conditions: oral administration, suspension in aqueous 0.5% methylcellulose, up to a dose of 2000 mg/kg, two weeks
Candida albicans [3] = assay: In vivo assay for antifungal activity (systemic candidiasis); conditions: male mice infected i.v. with Candida albicans; 20 mg/kg orally once a day for seven days; at 28 days after the infection
Method: Azole compounds synthesized in Examples were assayed for antifungal activity in vivo.
A suspension containing Candida albicans in a concentration ranging from 7×10^7 to 8×10^7 cfu/ml was intravenously injected at a dose of 0.1 ml/head into 10 male mice. 2 hrs after the injection, the compounds of the present inventions were orally administered at a dose of 20 mg/kg to respective mice in groups of 10. The compounds were administered once a day for seven days. The periods of time for which the infected mice lived were counted. The number of mice that survived the fungal infection was represented as % survival for each test group.

## C[C@@H](n1cc(-c2ccccc2)cn1)[C@](O)(Cn1cncn1)c1ccc(F)cc1F [Example 2]
Aspergillus flavus
  Antifungal Activity (MIC) Aspergillus flavus: 4 µg/mL
Cryptococcus neoformans
  Antifungal Activity (MIC) Cryptococcus neoformans: 0.25 µg/mL
Aspergillus terreus
  Antifungal Activity (MIC) Aspergillus terreus: 4 µg/mL
Candida glabrata
  Antifungal Activity (MIC) Candida glabrata: 2 µg/mL
Candida parapsilosis
  Antifungal Activity (MIC) Candida parapsilosis: ≦0.015 μg/ml
Candida tropicalis
  Antifungal Activity (MIC) Candida tropicalis: 0.25 µg/mL
Aspergillus fumigatus
  Antifungal Activity (MIC) Aspergillus fumigatus: 1 µg/mL
Candida albicans [1]
  Antifungal Activity (MIC) Candida albicans: ≦0.015 μg/ml
Candida krusei
  Antifungal Activity (MIC) Candida krusei: 0.5 µg/mL

## C[C@@H](n1cc(-c2ccccc2F)cn1)[C@](O)(Cn1cncn1)c1ccc(F)cc1F [Example 3, (2R,3R)-3-(4-(2-fluorophenyl)1H-pyrazole-1-yl)-2-(2,4-difluorophenyl)-1-(1H-1,2,4-triazole-1-yl)butane-2-ol]
Aspergillus flavus
  MIC: 4 µg/mL (≈ 9.68 µM)
Cryptococcus neoformans
  MIC: 0.125 µg/mL (≈ 0.302 µM)
Aspergillus terreus
  MIC: 2 µg/mL (≈ 4.84 µM)
Candida glabrata
  MIC: 2 µg/mL (≈ 4.84 µM)
Candida parapsilosis
  MIC: 0.031 µg/mL (≈ 0.075 µM)
Candida tropicalis
  MIC: 1 µg/mL (≈ 2.42 µM)
Aspergillus fumigatus
  MIC: 0.5 µg/mL (≈ 1.21 µM)
Candida albicans [1]
  MIC: ≤ 0.015 µg/mL
Candida krusei
  MIC: 1 µg/mL (≈ 2.42 µM)

## C[C@@H](n1cc(-c2cccc(F)c2)cn1)[C@](O)(Cn1cncn1)c1ccc(F)cc1F [Example 8, (2R,3R)-3-(4-(3-fluorophenyl)-1H-pyrazole-1-yl)-2-(2,4-difluorophenyl)-1-(1H-1,2,4-triazole-1-yl)butane-2-ol]
Aspergillus flavus
  MIC: 8 µg/mL (≈ 19.4 µM)
Cryptococcus neoformans
  MIC: 0.031 µg/mL (≈ 0.075 µM)
Aspergillus terreus
  MIC: 2 µg/mL (≈ 4.84 µM)
Candida glabrata
  MIC: 2 µg/mL (≈ 4.84 µM)
Candida parapsilosis
  MIC: ≤ 0.015 µg/mL
Candida tropicalis
  MIC: 0.25 µg/mL (≈ 0.605 µM)
Aspergillus fumigatus
  MIC: 1 µg/mL (≈ 2.42 µM)
Candida albicans [1]
  MIC: ≤ 0.015 µg/mL
Candida krusei
  MIC: 0.5 µg/mL (≈ 1.21 µM)

## C[C@@H](n1cc(-c2cccc(Cl)c2)cn1)[C@](O)(Cn1cncn1)c1ccc(F)cc1F [Example 9, (2R,3R)-3-(4-(3-chlorophenyl)-1H-pyrazole-1-yl)-2-(2,4-difluorophenyl)-1-(1H-1,2,4-triazole-1-yl)butane-2-ol]
Aspergillus flavus
  MIC: 8 µg/mL (≈ 18.6 µM)
Cryptococcus neoformans
  MIC: 0.25 µg/mL (≈ 0.582 µM)
Aspergillus terreus
  MIC: 4 µg/mL (≈ 9.31 µM)
Candida glabrata
  MIC: 1 µg/mL (≈ 2.33 µM)
Candida parapsilosis
  MIC: ≤ 0.015 µg/mL
Candida tropicalis
  MIC: 0.063 µg/mL (≈ 0.147 µM)
Aspergillus fumigatus
  MIC: 2 µg/mL (≈ 4.65 µM)
Candida albicans [1]
  MIC: ≤ 0.015 µg/mL
Candida krusei
  MIC: 0.25 µg/mL (≈ 0.582 µM)

## C[C@@H](n1cc(-c2ccc(Cl)cc2)cn1)[C@](O)(Cn1cncn1)c1ccc(F)cc1F [Example 14, (2R,3R)-3-(4-(4-chlorophenyl)-1H-pyrazole-1-yl)-2-(2,4-difluorophenyl)-1-(1H-1,2,4-triazole-1-yl)butane-2-ol]
Aspergillus flavus
  MIC: 4 µg/mL (≈ 9.31 µM)
Cryptococcus neoformans
  MIC: 0.25 µg/mL (≈ 0.582 µM)
Aspergillus terreus
  MIC: 2 µg/mL (≈ 4.65 µM)
Candida glabrata
  MIC: 2 µg/mL (≈ 4.65 µM)
Candida parapsilosis
  MIC: ≤ 0.015 µg/mL
Candida tropicalis
  MIC: 0.031 µg/mL (≈ 0.0721 µM)
Aspergillus fumigatus
  MIC: 1 µg/mL (≈ 2.33 µM)
Candida albicans [1]
  MIC: ≤ 0.015 µg/mL
Candida krusei
  MIC: 0.25 µg/mL (≈ 0.582 µM)
[2]
  toxic syndromes (acute toxicity): not to suffer from any toxic syndromes

## C[C@@H](n1cc(-c2ccc(Br)cc2)cn1)[C@](O)(Cn1cncn1)c1ccc(F)cc1F [Example 15, (2R,3R)-3-(4-(4-bromophenyl)-1H-pyrazole-1-yl)-2-(2,4-difluorophenyl)-1-(1H-1,2,4-triazole-1-yl)butane-2-ol]
Aspergillus flavus
  MIC: 4 µg/mL (≈ 8.43 µM)
Cryptococcus neoformans
  MIC: 0.125 µg/mL (≈ 0.264 µM)
Aspergillus terreus
  MIC: 1 µg/mL (≈ 2.11 µM)
Candida glabrata
  MIC: 2 µg/mL (≈ 4.22 µM)
Candida parapsilosis
  MIC: ≤ 0.015 µg/mL
Candida tropicalis
  MIC: 0.125 µg/mL (≈ 0.264 µM)
Aspergillus fumigatus
  MIC: 1 µg/mL (≈ 2.11 µM)
Candida albicans [1]
  MIC: ≤ 0.015 µg/mL
Candida krusei
  MIC: 0.5 µg/mL (≈ 1.05 µM)

## C[C@@H](n1cc(-c2ccc([N+](=O)[O-])cc2)cn1)[C@](O)(Cn1cncn1)c1ccc(F)cc1F [Example 17, (2R,3R)-2-(2,4-difluorophenyl)-3-(4-(4-nitrophenyl)-1H-pyrazole-1-yl)-1-(1H-1,2,4-triazole-1-yl)butane-2-ol]
Aspergillus flavus
  MIC: 8 µg/mL (≈ 18.2 µM)
Cryptococcus neoformans
  MIC: 0.031 µg/mL (≈ 0.0704 µM)
Aspergillus terreus
  MIC: 2 µg/mL (≈ 4.54 µM)
Candida glabrata
  MIC: 4 µg/mL (≈ 9.08 µM)
Candida parapsilosis
  MIC: ≤ 0.015 µg/mL
Candida tropicalis
  MIC: 0.125 µg/mL (≈ 0.284 µM)
Aspergillus fumigatus
  MIC: 2 µg/mL (≈ 4.54 µM)
Candida albicans [1]
  MIC: ≤ 0.015 µg/mL
Candida krusei
  MIC: 0.25 µg/mL (≈ 0.568 µM)
[2]
  toxic syndromes (acute toxicity): not to suffer from any toxic syndromes

## OC(Cn1cncn1)(Cn1cncn1)c1ccc(F)cc1F [Fluconazole, reference compound]
Aspergillus flavus
  MIC: > 128 µg/mL
Cryptococcus neoformans
  MIC: 8 µg/mL (≈ 26.1 µM)
Aspergillus terreus
  MIC: > 128 µg/mL
Candida glabrata
  MIC: > 32 µg/mL
Candida parapsilosis
  MIC: > 8 µg/mL
Candida tropicalis
  MIC: > 8 µg/mL
Aspergillus fumigatus
  MIC: > 128 µg/mL
Candida albicans [1]
  MIC: 4 µg/mL (≈ 13.1 µM)
Candida krusei
  MIC: > 32 µg/mL
Candida albicans [3]
  % survival: 10%
